Results on three compounds are retold here after patent US20260183277A1, “ANTIVIRAL PHARMACEUTICAL COMPOSITION COMPRISING ERRy INHIBITOR AS ACTIVE INGREDIENT” (priority 2024, published 2026).

The target in one series is T1, ERRγ (Homo sapiens, UniProt P62508).
T1 sequence (P62508 1-458): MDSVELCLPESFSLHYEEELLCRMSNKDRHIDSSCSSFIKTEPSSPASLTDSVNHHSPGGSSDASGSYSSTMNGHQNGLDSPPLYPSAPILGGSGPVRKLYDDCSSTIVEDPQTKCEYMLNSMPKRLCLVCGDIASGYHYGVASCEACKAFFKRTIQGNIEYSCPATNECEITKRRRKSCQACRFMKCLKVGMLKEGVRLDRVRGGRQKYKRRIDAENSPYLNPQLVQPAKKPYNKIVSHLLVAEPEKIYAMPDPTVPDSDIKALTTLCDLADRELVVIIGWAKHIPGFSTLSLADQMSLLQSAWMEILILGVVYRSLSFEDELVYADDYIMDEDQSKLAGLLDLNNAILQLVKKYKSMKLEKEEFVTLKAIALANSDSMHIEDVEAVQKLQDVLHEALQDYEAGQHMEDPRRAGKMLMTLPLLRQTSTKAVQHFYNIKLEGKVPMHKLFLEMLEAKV
The following applies: compared with lead compound GSK5182; cited from earlier work.

The test system of the next series is free fatty acids (FFA). In kind it is cell-based.
A further series concerns SARS-CoV-2 S protein. In kind it is cell-based.
Series [1] has as its system intracellular fatty acid oxidation (FAO). It is filed as cell-based.
For the next series, the system named is SARS-CoV-2 KCDC03 strain. Kind of series: SARS-CoV-2 KCDC03 challenge of Syrian hamsters. In kind it is in vivo. The following applies: for reduction of gross lung lesions, individual therapy: strain not stated.
In series [2] the test system is SARS-CoV-2-infected Vero E6 cells. Kind of series: Eicosanoid and cytokine ELISA in SARS-CoV-2-infected Vero E6 cells. It is filed as cell-based, monkey. Background: An ELISA detects its analyte on a solid surface through an enzyme-linked reagent.
Another series has as its system PSaV Cowden strain. Kind of series: microbe, parasite or virus in culture. It is filed as cell-based, porcine sapovirus. The conditions noted are these: Sapporo virus, MOI=0.1 FFU, viral yield in cell supernatant, read-out: half-maximal inhibitory concentration (IC50).
The subject of series [3] is intracellular triacylglycerol (TAG). In kind it is cell-based. The following applies: virus-infected cells; 20 μM.
A further series concerns BCoV KWD strain. It is filed as cell-based, bovine coronavirus. The conditions noted are these: maximum dose of 20 μM.
The test system of series [4] is SREBP1c, SREBP1a, FASN, DGAT1, SCD1. In kind it is cell-based.
The test system of series [5] is SARS-CoV-2-infected cells. Description: Double-membrane vesicle / dsRNA formation by TEM and confocal microscopy. It is filed as cell-based.
For another series, the system named is IAV HA protein. In kind it is cell-based, influenza A virus.
Series [6] is described as follows: Lung distribution after administration to animals. The conditions noted are these: in vivo experiments. An excerpt:
[…]. […] […]

For series [7], the system named is influenza A virus (IAV) PR8 strain. In kind it is cell-based.
In another series the test system is IAV-infected A549 cells. It is filed as cell-based, human.
Series [8] concerns human SREBP1c gene promoter. It is filed as cell-based. The following applies: cells infected with each individual virus; 20 μM.
Another series relates to PEDV QIAP1401 strain. It is filed as cell-based, porcine epidemic diarrhea coronavirus. The following applies: maximum dose of 20 μM.
For series [9] the following is noted: mice.
The next series concerns ROS. In kind it is cell-based.
The test system of series [10] is c-Jun occupancy on the AP1 regulatory element site of the ERRγ promoter. In kind it is cell-based.
For the next series, the system named is ERRγ promoter. It is filed as cell-based.

Where two headings read alike, the source gives them in different places.

On to `CC(C)N1CCN(c2ccc(/C(=C(/CCCO)c3ccccc3)c3ccc(O)cc3)cc2)CC1` [DN200434], for which the “functional IC50 relative to GSK5182” value at ERRγ was 12 fold. The “synthesis of representative fatty acids induced by infection” value with free fatty acids (FFA) is “significantly interrupted”. In the series with free fatty acids (FFA) (20 μM), the “level of selected FFA” value is “either restored the level of selected FFA to that of mock control cells or decreased it below mock control levels”. For the same compound, the “palmitoylation of SARS-CoV-2 S protein” value with SARS-CoV-2 S protein is recorded as “significantly inhibited”. Further, the “energy production through 3-oxidation in the mitochondria from the FFA substrate” value in [1] was “inhibited”. Besides, the “reduction in gross lung lesions” value with SARS-CoV-2 KCDC03 strain (40 mg kg^−1 d^−1 i.p., twice a day for four and a half days, vs virus-challenged, vehicle-treated control) turned out to be 92%. The “reduction of gross lung lesions, individual therapy” value in the series with SARS-CoV-2 KCDC03 strain (DN200434 40 mg kg^−1 d^−1 alone (combination study)) is 50%. For the same compound, the “IFN-α and IFN-β levels in BALF” value in the series with SARS-CoV-2 KCDC03 strain (hamsters, i.p., vs vehicle-treated controls) was “no effect”. In series [2] (SARS-CoV-2-infected Vero cells), the “IFN-α and IFN-β levels” value is recorded as “remained unchanged”; the “TNF-α, IL-6, and MCP-1 levels” value is reported as “significantly reduced”. Further, the “levels of PGE2 and LTB4” value in series [2] (SARS-CoV-2-infected cells) is reported as “significantly reduced”. In addition, in the series with PSaV Cowden strain, the IC50 was determined as 6.24 ± 1.07 µM. For the same compound, in series [3], the “lipid accumulation (intracellular TAG)” value is on record as “effectively attenuated”. Besides, in the series on BCoV KWD strain, the “reduction in viral genome copy numbers” value is “more than 2.0 log 10 steps” and the “reduction in viral titers” value is recorded as “more than 2.0 log 10 steps”. For the same compound, the “SREBP1c expression activated by individual virus infections” value in series [4] is given as “reduced”. In series [4] (20 μM), the “basal level of SREBP1a mRNA” value is on record as “not affected” and the “lipogenic gene activation (FASN, DGAT1, SCD1 mRNA)” value is “effectively attenuated”. In [5] (TEM and confocal microscopy), the “SARS-CoV-2-induced perinuclear DMV clusters containing viral double-stranded RNA” value was “significant reduction”. Further, in series [5] (TEM, vs vehicle-treated virus-infected cells), the “number of progeny viral particles” value is recorded as “notable reduction”. Under “Syrian hamsters, i.p. 40 mg kg^−1 d^−1, 14 days”, the signs of toxicity result was “did not induce any signs of toxicity”. In addition, the “gross or histopathological changes in vital organs (liver, lung, kidney, heart, spleen)” value (hamsters) is on record as “did not result in gross or histopathological changes”. Further, the “palmitoylation of IAV HA proteins” value with IAV HA protein is reported as “significantly inhibited”. Moreover, the “detection in the lungs via the bloodstream” value in series [6] is “detected in sufficient quantities in the lungs”. The “viral genome replication, progeny production, and protein synthesis of IAV” value in series [7] is “dose-dependent suppression”. Also, in the series on IAV-infected A549 cells, the “levels of PGE2 and LTB4” value is “significantly reduced”; the “proinflammatory cytokines IFN-α, IFN-β, TNF-α, IL-6, and MCP-1” value is given as “significant suppression”. Besides, the “activity of the SREBP1c gene promoter” value in [8] was “markedly suppressed”. In addition, in the series with PEDV QIAP1401 strain, the “reduction in viral genome copy numbers” value is given as “more than 2.0 log 10 steps” and the “reduction in viral titers” value was “more than 2.0 log 10 steps”. Further, in [9], the “gross or histopathological changes in vital organs (liver, lung, kidney, heart, spleen)” value is listed as “did not result in gross or histopathological changes”. In addition, the signs of toxicity entry in series [9] (i.p. 20 mg kg^−1 d^−1, 14 days) is recorded as “did not induce any signs of toxicity”.
As for `CC(=O)N[C@@H](CS)C(=O)O` [NAC, N-acetylcysteine], the “virus-induced ROS generation” value in the series on ROS is “significantly suppressed”. Further, in series [10], the “virus-increased occupancy of c-Jun on the AP1 regulatory element site of the ERRγ promoter” value is “markedly blocked”. In addition, the “virus-induced activation of ERRγ promoter and ERRγ expression” value with ERRγ promoter is listed as “attenuated”.
As for `CCC(CC)COC(=O)[C@H](C)N[P@](=O)(OC[C@H]1O[C@@](C#N)(c2ccc3c(N)ncnn23)[C@H](O)[C@@H]1O)Oc1ccccc1` [remdesivir, reference compound], the “reduction of gross lung lesions, individual therapy” value in the series on SARS-CoV-2 KCDC03 strain (remdesivir 2.5 mg kg^−1 d^−1 alone) is recorded as 20%.
